Data from patent publication US10675254B2, “Sphingosine-1-phosphate receptor agonist iontophoretic devices and methods of using the same” (Teikoku Seiyaku Co., Ltd., priority 2013, dated 2020).
Structures can show the parent of a compound that is named as a salt.

Experiments:
[1] = In vitro iontophoretic delivery (active + passive) of Fingolimod HCl through epidermis of cadaver skin, Franz cell; format: in vitro ADME; conditions: for Active + passive Maximum delivery efficiency: donor 0.5% Fingolimod HCl solution, 8 hr; for Active + passive Maximum delivery efficiency / Active + passive Average delivery efficiency: 0.425 mA, 1.77 cm2; for Active + passive Average delivery efficiency: Ag anode/AgCl cathode, 48 hr
[2] = In vitro passive delivery of Fingolimod HCl through epidermis of cadaver skin, Franz cell (control); format: in vitro ADME; conditions: for Passive Maximum delivery efficiency: donor 0.5% Fingolimod HCl solution, 8 hr; for Passive Maximum delivery efficiency / Passive Average delivery efficiency: 1.77 cm2; for Passive Average delivery efficiency: 48 hr
Description: Passive delivery under the same experimental conditions was also concurrently investigated with the iontophoretic delivery and employed as a control. […] The maximum efficiency could be reached at a concentration of less than 0.25%. After 8 hr., some passive delivery of fingolimod HCl through the skin was also observed. This observation may have resulted from the imperfection of the skin and the experimental design. In this study, the presence of pores from the micro-sized damage of the epidermis during the preparation of the epidermal membrane and from the appendages (hair follicles, sweat ducts) might facilitate the contact between donor and receptor site and contribute to the passive delivery of fingolimod HCl solution into the receptor solution.

[3] = orally administered fingolimod HCl; cited from earlier work
[4] = donor 0.25% fingolimod HCl solution, receptor 0.09% NaCl
[5] = donor 0.50% fingolimod HCl solution, receptor 0.09% NaCl
[6] = donor 0.75% fingolimod HCl solution, receptor 0.09% NaCl
[7] = donor 1% fingolimod HCl solution, receptor 0.09% NaCl
[8] = donor 2% fingolimod HCl solution, receptor 0.09% NaCl

delivery efficiency (active+passive) ([1]; 0.25, 0.5, 0.75, 1 and 2% fingolimod HCl solutions, current 0.425 mA, area 1.77 cm^2): about 4.5 μg/cm2/hr
Active + passive Maximum delivery efficiency ([1]; Ag/AgCl electrodes, receptor 0.9% NaCl): 5.0 ug/cm2/hr
Active + passive Maximum delivery efficiency ([1]; Zn/AgCl electrodes, receptor 0.09% NaCl): 16.8 ug/cm2/hr
Active + passive Maximum delivery efficiency ([1]; Zn/AgCl electrodes, receptor 0.9% NaCl): 5.8 ug/cm2/hr
Active + passive Average delivery efficiency [1, 4]: 4.8 ug/cm2/hr
Active + passive Average delivery efficiency [1, 5]: 5.0 ug/cm2/hr
Active + passive Average delivery efficiency [1, 6]: 4.5 ug/cm2/hr
Active + passive Average delivery efficiency [1, 7]: 4.5 ug/cm2/hr
Active + passive Average delivery efficiency [1, 8]: 4.2 ug/cm2/hr
Passive Maximum delivery efficiency ([2]; receptor 0.09% NaCl): 0 ug/cm2/hr
Passive Maximum delivery efficiency ([2]; receptor 0.9% NaCl): 0 ug/cm2/hr
Passive Average delivery efficiency [2, 4]: 0.8 ug/cm2/hr
Passive Average delivery efficiency [2, 5]: 0.9 ug/cm2/hr
Passive Average delivery efficiency [2, 6]: 0.8 ug/cm2/hr
Passive Average delivery efficiency [2, 7]: 0.7 ug/cm2/hr
Passive Average delivery efficiency [2, 8]: 1.4 ug/cm2/hr
passive delivery detected ([2]; over an 8 h period, 0.5% Fingolimod HCl solution): no Fingolimod HCl delivery was detected
Structure (SMILES): CCCCCCCCc1ccc(CCC(N)(CO)CO)cc1 [Fingolimod HCl, 2-amino-2-[2-(4-octylphenyl)ethyl]propane-1,3-diol]
peak to trough fluctuations, non-phosphorylated fingolimod [3]: ≤ 20%
peak to trough fluctuations, phosphorylated (active) form of fingolimod [3]: ≤ 45%
